According to patent publication US20260078121A1, “INHIBITORS OF ENL/AF9 YEATS AND FLT3” (Bridge Medicines, priority 2022, published 2026):

Columns and labels:
[1] = test system: MV4:11 (MLL-AF4 MLL) cells; test: Cell viability assay (CellTiter-Glo), 12 days; format: cell-based; conditions: Homo sapiens, 288 h, MV4:11 cells, cells split on days 4 and 8, CellTiter-Glo readout, read-out: MV4:11, 12 Day IC50
Experimental: Cell-based assays were used to assess the ability of test compounds to reduce cell viability in both MV4:11 (MLL-AF4 MLL) and K562 cells, which were cultured in Iscove's Modified Dulbecco's medium (Gibco, 12440061) containing 10% FBS. The assays were conducted over 12 days and the cells being split on days 4 and 8. Compound concentration response curves were performed in duplicate over the concentration range of 0.15 nM-30 μM. On day 0, the compounds or vehicle were plated in a 300 nL directly into 96 well cell culture plates (Corning, 3599) with 5000 cells/well in a volume of 100 μL. Blank wells received cell culture medium. Plates were incubated for 4 days at 37° C. with 5% CO2. On days 4 and day 8 the cells were split and incubated for a further 4 days whilst an aliquot of cells were taken for the CTG readout. For the cell splitting, 270 nL of compounds or DMSO was added to a new 96 well cell culture plate to which 90 μL of medium plus 10 μL of cells from the original assay plate (after mixing) or 100 μL of medium (Blank wells) was added. This was repeated on day 8.
Cell viability was assessed using the CellTiter-Glo® homogeneous luminescent assay kit (Promega, G9243), according to the manufacturer's instructions. This quantifies ATP, which indicates the presence of metabolically active cells. On days 4, 8 and 12, 20 μl of the remaining cell suspension was aspirated into 384-well plate (Corning 3570) to which an equal volume CellTiter-Glo reagent was. Plates were incubated for 10 minute incubation at RT prior to recording the luminescence signal using EnVision plate reader (PE, 2104). The resulting data were analyzed as follows:
where vehicle are cells treated with 0.3% DMSO, Blank is culture medium. IC50 determinations were calculated by fitting the curve using XLfit (v5.3.1.3): Y=Bottom+(Top−Bottom)/(1+10^((Log IC50−X)*HillSlope)).

ENL YEATS domain = target: T1, ENL YEATS domain (Homo sapiens, UniProt Q03111); test: TR-FRET ENL Screening Assay; conditions: 6×HIS ENL YEATS domain binding to biotinylated H3K9cr peptide (aa1-20)
T1 construct: ENL Protein (6×HIS ENL YEATS Domain, EpiCypher, 15-0069); purchased EpiCypher 15-0069
T1 sequence (Q03111 1-138 limits assumed): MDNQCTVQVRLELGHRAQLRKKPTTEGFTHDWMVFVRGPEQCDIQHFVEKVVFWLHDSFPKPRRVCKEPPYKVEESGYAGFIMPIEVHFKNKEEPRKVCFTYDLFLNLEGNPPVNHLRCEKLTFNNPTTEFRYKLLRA
Experimental: Compounds of the invention were tested in a TR-FRET ENL Screening Assay. TR-FRET (time-resolved fluorescence energy transfer) can be used to quantify ENL YEATS domain binding to a crotonylated histone peptide (H3K9cr, aa1-20). Streptavidin-Europium (Eu) chelate binds the biotinylated peptide, while Anti-6×HIS ULight™ binds 6×HIS-ENL. When Eu chelate is excited at 320 nm, fluorescence resonance energy transfer (FRET) occurs if Eu and ULight are made proximal by ENL binding to the acyl-peptide. ULight emission (FRET) is measured at 665 nm and normalized to the Eu emission at 615 nm to reduce variability between wells.
Compounds of the invention were dissolved in DMSO at a concentration of 3 mM with subsequent dilutions in assay buffer (50 mM HEPES PH 7.0, 150 mM NaCl, 0.05% BSA, 0.2% Pluronic F-127) such that the assay contained 1% DMSO. In a white 384 shallow well Microplate (Proxiplate-384 Plus, PerkinElmer, 6008280), 150 nL of compound or vehicle (1% DMSO in assay buffer) for the high control (HC) wells and 5 μL of 30 nM ENL Protein (6×HIS ENL YEATS Domain, EpiCypher, 15-0069) were combined and incubated 15 minutes at RT. Low control (LC) wells received 5 μL of assay buffer instead of ENL protein. Then 5 μL of 15 nM H3K9cr peptide (H3 aa1-20, biotinylated; EpiCypher, 12-0099) in assay buffer was added and incubated 30 minutes at RT. Finally, a 5 L mix of 45 nM Anti-6HIS ULight (PerkinElmer, TRF0105) and 1.5 nM Streptavidin-Europium Chelate (PerkinElmer, AD0060) were added and incubated for a further 30 minutes at RT. The TR-FRET signal (665 nm signal/615 nm signal×10,000) was measured using a PerkinElmer 2104 EnVision (Xenon Flash Lamp excitation, 320 nm±37.5 nm excitation filter, 407 nm cut off dichroic mirror, 615 nm±4.25 (Europium) nm and 665 nm+3.75 nM (ULight) emission filters). Compound concentration response curves were performed in duplicate over the concentration range of 0.15 nM-30 μM. The response at each compound concentration minus the LC value was converted to percent inhibition of the vehicle control group response (HC-LC).

FLT3 = target: T2, FLT3 (Homo sapiens, UniProt P36888); test: FLT3 Inhibition Assay; format: biochemical; conditions: FL Peptide 2 substrate, 30 min preincubation, 90 min at room temperature, Caliper EZ reader
T2 construct: purchased Carna 08-154
T2 sequence (P36888 27-993): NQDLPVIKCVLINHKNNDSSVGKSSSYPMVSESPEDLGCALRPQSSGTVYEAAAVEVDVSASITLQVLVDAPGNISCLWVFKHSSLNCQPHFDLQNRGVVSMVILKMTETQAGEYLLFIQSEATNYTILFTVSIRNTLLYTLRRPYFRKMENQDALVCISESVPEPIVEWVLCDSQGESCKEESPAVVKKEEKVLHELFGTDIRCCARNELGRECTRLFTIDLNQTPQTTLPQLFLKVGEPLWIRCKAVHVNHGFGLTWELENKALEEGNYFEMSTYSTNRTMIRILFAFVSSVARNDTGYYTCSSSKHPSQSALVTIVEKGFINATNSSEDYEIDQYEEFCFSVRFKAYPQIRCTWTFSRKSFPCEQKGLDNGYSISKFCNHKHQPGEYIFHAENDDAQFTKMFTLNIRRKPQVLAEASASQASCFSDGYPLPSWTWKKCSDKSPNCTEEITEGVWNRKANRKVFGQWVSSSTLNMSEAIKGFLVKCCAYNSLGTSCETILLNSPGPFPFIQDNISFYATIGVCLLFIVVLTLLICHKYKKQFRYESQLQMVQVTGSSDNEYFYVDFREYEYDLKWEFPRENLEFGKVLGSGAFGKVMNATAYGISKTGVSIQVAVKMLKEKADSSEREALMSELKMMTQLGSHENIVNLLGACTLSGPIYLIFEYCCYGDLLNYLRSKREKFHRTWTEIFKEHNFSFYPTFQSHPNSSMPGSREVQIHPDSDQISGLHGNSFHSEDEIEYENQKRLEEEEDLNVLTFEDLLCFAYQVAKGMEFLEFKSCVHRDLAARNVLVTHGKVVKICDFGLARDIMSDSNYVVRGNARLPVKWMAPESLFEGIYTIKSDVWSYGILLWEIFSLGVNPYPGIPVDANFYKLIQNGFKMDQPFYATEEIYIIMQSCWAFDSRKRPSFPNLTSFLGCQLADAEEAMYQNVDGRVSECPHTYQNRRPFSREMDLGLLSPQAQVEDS
Experimental: Starting with a 10 mM stock solution, each test compound was serially diluted into 10 concentrations by 3-fold dilution using TECAN EVO200. 60 nL of each stock was transferred to a 384 plate using Echo550.
Solution 1 was prepared as the table above and used to dilute the FLT3, ATP and FL2 stock to 0.9379 nM (1.33×), 400 μM (4×) and 6 μM (4×) respectively. The FLT3 solution (15 μL) at 25° C. was added to each well, shaken for 1 min and preincubated with test compound and controls for 30 min. To each well, 5 μL of ATP and FL-Peptide2 solutions, as prepared above, were added and the plate was shaken for 10 seconds, then spun briefly at 1000 rpm, then incubated for 90 minutes at room temperature. The plate was read on Caliper EZ reader, and the IC50 values were calculated using XLfit (equation below).
[formula] • LumSample: Test compound signal • LumLC: Low control signal • LumHC: High control signal

Compound | IC50 [1] [nM] | IC50 (ENL YEATS domain) [nM] | IC50 (FLT3) [nM]
CN1CCC[C@@H]1c1cc2cnc(NC(=O)c3ccc(-c4c[nH]nc4F)cc3)cc2[nH]1 [Example 9, (R)-4-(5-fluoro-1H-pyrazol-4-yl)-N-(2-(1-methylpyrrolidin-2-yl)-1H-pyrrolo[3,2-c]pyridin-6-yl)benzamide] | 176 | 73 | 
COCc1n[nH]cc1-c1ccc(C(=O)Nc2cc3[nH]c([C@H]4CCCN4C)cc3cn2)cc1 [Example 8, (R)-4-(5-(methoxymethyl)-1H-pyrazol-4-yl)-N-(2-(1-methylpyrrolidin-2-yl)-1H-pyrrolo[3,2-c]pyridin-6-yl)benzamide] | 357 | 179 | 
CN1CCCC[C@@H]1c1cc2cnc(NC(=O)c3ccc(-c4cn[nH]c4)cn3)cc2[nH]1 [Example 7, (R)-N-(2-(1-methylpiperidin-2-yl)-1H-pyrrolo[3,2-c]pyridin-6-yl)-5-(1H-pyrazol-4-yl)picolinamide] | 36 |  | 
CN1CCC[C@H]1c1cc2cnc(NC(=O)c3ccc(-c4cn[nH]c4)cn3)cc2[nH]1 [Example 3, (S)-N-(2-(1-methylpyrrolidin-2-yl)-1H-pyrrolo[3,2-c]pyridin-6-yl)-5-(1H-pyrazol-4-yl)picolinamide] | 83 |  | 13
CN1CCC[C@@H]1c1cc2cnc(NC(=O)c3ccc(-c4cn[nH]c4)cc3F)cc2[nH]1 [Example 4, (R)-2-fluoro-N-(2-(1-methylpyrrolidin-2-yl)-1H-pyrrolo[3,2-c]pyridin-6-yl)-4-(1H-pyrazol-4-yl)benzamide] | 119 | 67 | 
CN1CCCC[C@@H]1c1cc2cnc(NC(=O)c3ccc(-c4cn[nH]c4)cc3)cc2[nH]1 [Example 6, (R)-N-(2-(1-methylpiperidin-2-yl)-1H-pyrrolo[3,2-c]pyridin-6-yl)-4-(1H-pyrazol-4-yl)benzamide] | 138 | 64 | 
CN1CCC[C@@H]1c1cc2cnc(NC(=O)c3ccc(-c4cn[nH]c4)cc3)cc2[nH]1 [Example 5, (R)-N-(2-(1-methylpyrrolidin-2-yl)-1H-pyrrolo[3,2-c]pyridin-6-yl)-4-(1H-pyrazol-4-yl)benzamide] | 79 | 46 | 274
CN1CCC[C@@H]1c1cc2cnc(NC(=O)c3ccc(-c4cn[nH]c4)cn3)cc2[nH]1 [Example 2, (R)-N-(2-(1-methylpyrrolidin-2-yl)-1H-pyrrolo[3,2-c]pyridin-6-yl)-5-(1H-pyrazol-4-yl)picolinamide] | 19 |  | 7
Cc1cc2cnc(NC(=O)c3ccc(-c4cn[nH]c4)cn3)cc2[nH]1 [Example 1, N-(2-methyl-1H-pyrrolo[3,2-c]pyridin-6-yl)-5-(1H-pyrazol-4-yl)picolinamide] | 40 |  | 7
